Test results from article PMC9127750, “Structure-based design of CDC42 effector interaction inhibitors for the treatment of cancer” (Cell reports, 2022).
Values joined by “and” are separate entries in the source; they are usually repeats but may differ in a detail not shown here. Equal values may be shown once.

System: WM3248 melanoma cells, 486 antibodies
Assay: Reverse phase protein arrays (RPPA);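 on RPPA AceCS1.R.V: ratio of treated to vehicle (0 µM) normalized linear protein signal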;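 on RPPA Akt1 pS473.R.V: ratio of treated to vehicle (0 µM) normalized linear protein signal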;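 on RPPA Akt1.R.V: ratio of treated to vehicle (0 µM) normalized linear protein signal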;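 on RPPA Ambra1 pS52.R.C: ratio of treated to vehicle (0 µM) normalized linear protein signal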;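 on RPPA Atg5.R.C: ratio of treated to vehicle (0 µM) normalized linear protein signal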;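 on RPPA Bim.R.V: ratio of treated to vehicle (0 µM) normalized linear protein signal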
Type: cell-based, Human
Conditions: 5 uM
Description: Pellets were snap frozen in liquid nitrogen and shipped to MD Anderson Cancer Center core RPPA facility for RPPA analysis (Table S5). Three biological replicates for each sample were generated.
Nomenclatures on the RPPA heatmaps: name_of_antibody.species_of_antibody.status_of_antibody. V - antibody validated; C - validation of antibody in progress; Q - antibody nonspecific; E – under evaluation; antibodies raised in M - mouse, G - goat, R - rabbit, or T - rat.

Structure (SMILES): CN(C)c1cccc(Nc2cc(-c3ccccc3)nc(C3CCNCC3)n2)c1 [ARN22089, N1,N1-dimethyl-N3-(6-phenyl-2-(piperidin-4-yl)pyrimidin-4-yl)benzene-1,3-diamine]
- RPPA AceCS1.R.V (B.1): 1.006
- RPPA Akt1.R.V (B.1): 0.910
- RPPA Akt1_pS473.R.V (B.1): 0.894
- RPPA Akt2.R.V (B.1): 0.975
- RPPA Akt2_pS474.R.C (B.1): 1.016
- RPPA Akt_pS473.R.V (B.1): 0.899
- RPPA Akt_pT308.R.V (B.1): 0.827
- RPPA Ambra1_pS52.R.C (B.1): 0.978
- RPPA Annexin.I.M.V (B.1): 1.021
- RPPA Atg3.R.V (B.1): 0.935
- RPPA Atg4B.R.C (B.1): 0.930
- RPPA Atg5.R.C (B.1): 0.974
- RPPA Atg7.R.V (B.1): 0.761
- RPPA Aurora.A.R.C (B.1): 1.245
- RPPA Aurora.ABC_pT288_pT232_pT198.R.C (B.1): 0.869
- RPPA Axl.R.V (B.1): 0.622
- RPPA B7.H3.R.C (B.1): 0.992
- RPPA B.Raf.R.C (B.1): 0.902
- RPPA BAP1.M.V (B.1): 0.996
- RPPA BCL2A1.R.V (B.1): 0.908
- RPPA BMK1.Erk5_pT218_Y220.R.V (B.1): 1.119
- RPPA BRCA1.M.C (B.1): 0.934
- RPPA BRD4.R.V (B.1): 1.027
- RPPA Bad_pS112.R.V (B.1): 0.939
- RPPA Bak.R.C (B.1): 0.987
- RPPA Bax.R.V (B.1): 0.996
- RPPA Bcl.xL.R.V (B.1): 1.022
- RPPA Beclin.R.C (B.1): 1.111
- RPPA BiP.GRP78.M.C (B.1): 0.998
- RPPA Bid.R.C (B.1): 0.999
- RPPA Bim.R.V (B.1): 0.906
- RPPA X4E.BP1.R.V (B.1): 0.997
- RPPA X4E.BP1_pS65.R.V (B.1): 1.205
- RPPA X4E.BP1_pT37_T46.R.V (B.1): 1.170
- RPPA X14.3.3.zeta.R.V (B.1): 1.080
- RPPA X14.3.3βR.V (B.1): 1.052
- RPPA X53BP1.R.V (B.1): 0.907
- RPPA b.Catenin.R.V (B.1): 1.025
- RPPA b.Catenin_pT41_S45.R.V (B.1): 0.975
- RPPA c.Abl.R.V (B.1): 0.965
- RPPA c.Abl_pY412.R.C (B.1): 0.885
- RPPA c.IAP2.R.C (B.1): 1.018
- RPPA PREX1.R.V Average (average of 3): 1.056
- RPPA PYGB.R.V Average (average of 3): 0.877
- RPPA PYGM.M.C Average (average of 3): 0.831
- RPPA Puma.R.C Average (average of 3): 0.937
- RPPA RBM15.R.V Average (average of 3): 0.979
- RPPA RIP3.R.C Average (average of 3): 1.059
- RPPA RIP.R.C Average (average of 3): 0.875
- RPPA RPA32.R.V Average (average of 3): 0.880
- RPPA RPA32_pS4_S8.R.C Average (average of 3): 0.828
- RPPA RRM1.R.C Average (average of 3): 0.995
- RPPA RRM2.R.C Average (average of 3): 1.008
- RPPA RSK1.R.V Average (average of 3): 0.889
- RPPA RSK.R.C Average (average of 3): 1.023
- RPPA Rab25.R.V Average (average of 3): 1.051
- RPPA Rad17_pS645.R.V Average (average of 3): 1.079
- RPPA Rad23A.R.C Average (average of 3): 0.869
- RPPA Rad50.R.V Average (average of 3): 0.989
- RPPA Rad51.R.C Average (average of 3): 1.005
- RPPA Raptor.R.V Average (average of 3): 1.028
- RPPA Rb_pS807_S811.R.V Average (average of 3): 1.059
- RPPA Rheb.M.C Average (average of 3): 0.971
- RPPA Rictor.R.C Average (average of 3): 1.019
- RPPA Rictor_pT1135.R.V Average (average of 3): 1.106
- RPPA S6_pS235_S236.R.V Average (average of 3): 1.300
- RPPA S6_pS240_S244.R.V Average (average of 3): 1.738
- RPPA SCD.M.V Average (average of 3): 1.005
- RPPA SDHA.R.V Average (average of 3): 1.077
- RPPA SF2.R.V Average (average of 3): 1.028
- RPPA SFRP1.R.V Average (average of 3): 0.962
- RPPA SGK1.R.V Average (average of 3): 1.098
- RPPA SGK3.R.V Average (average of 3): 0.993
- RPPA SHP2.R.V Average (average of 3): 0.993
- RPPA SHP.2_pY542.R.C Average (average of 3): 0.941
- RPPA SIRPαR.V Average (average of 3): 0.994
- RPPA SLC1A5.R.C Average (average of 3): 0.898
- RPPA SOD1.M.V Average (average of 3): 1.002
- RPPA SOD2.R.V Average (average of 3): 1.033
- RPPA SOX7.R.V Average (average of 3): 0.921
- RPPA STING.R.V Average (average of 3): 1.006
- RPPA Shc_pY317.R.C Average (average of 3): 0.879
- RPPA Slfn11.G.C Average (average of 3): 0.785
- RPPA Smac.M.Q Average (average of 3): 0.922
- RPPA Smad1.R.V Average (average of 3): 1.113
- RPPA Smad3.R.V Average (average of 3): 0.963
- RPPA Smad4.R.V Average (average of 3): 1.032
- RPPA Snail.M.Q Average (average of 3): 1.012
- RPPA Sox2.R.V Average (average of 3): 0.986
- RPPA Sox17.R.V Average (average of 3): 0.955
- RPPA Src_pY416.R.V Average (average of 3): 0.979
- RPPA Src_pY527.R.V Average (average of 3): 1.190
- RPPA Stat1_pY701.R.V Average (average of 3): 0.966
- RPPA Stat3.R.C Average (average of 3): 1.005
- RPPA Stat3_pY705.R.C Average (average of 3): 0.914
- RPPA Stat5a.R.V Average (average of 3): 1.163
- RPPA Stathmin.1.R.V Average (average of 3): 0.991
- RPPA Syk.M.V Average (average of 3): 0.987
- RPPA Synaptophysin.R.C Average (average of 3): 1.017
- RPPA TAZ.R.V Average (average of 3): 0.956
- RPPA TEAD.R.C Average (average of 3): 1.012
- RPPA TFAM.R.V Average (average of 3): 1.014
- RPPA TFRC.R.V Average (average of 3): 0.971
- RPPA TIGAR.R.V Average (average of 3): 1.035
- RPPA TRAP1.M.V Average (average of 3): 0.973
- RPPA TRIM24.R.C Average (average of 3): 0.998
- RPPA TRIP13.R.V Average (average of 3): 0.948
- RPPA Tau.M.C Average (average of 3): 0.996
- RPPA Transglutaminase.M.V Average (average of 3): 0.913
- RPPA signal, antibody TSC1.R.C, Average (average of 3 replicates): 1.118
- RPPA signal, antibody TTF1.R.V, Average (average of 3 replicates): 0.922
- RPPA signal, antibody TUFM.R.V, Average (average of 3 replicates): 1.149
- RPPA signal, antibody Tuberin.R.V, Average (average of 3 replicates): 1.289
- RPPA signal, antibody Tuberin_pT1462.R.V, Average (average of 3 replicates): 0.994
- RPPA signal, antibody Twist.M.C, Average (average of 3 replicates): 0.991
- RPPA signal, antibody Tyro3.R.V, Average (average of 3 replicates): 0.915
- RPPA signal, antibody UBAC1.R.V, Average (average of 3 replicates): 0.933
- RPPA signal, antibody UBQLN4.M.C, Average (average of 3 replicates): 1.031
- RPPA signal, antibody UGT1A.M.V, Average (average of 3 replicates): 0.995
- RPPA signal, antibody ULK1_pS757.R.C, Average (average of 3 replicates): 1.103
- RPPA signal, antibody UQCRC2.M.C, Average (average of 3 replicates): 0.845
- RPPA signal, antibody UVRAG.R.C, Average (average of 3 replicates): 1.060
- RPPA signal, antibody VASP.R.V, Average (average of 3 replicates): 1.009
- RPPA signal, antibody VEGFR.2_pY1175.R.C, Average (average of 3 replicates): 0.987
- RPPA signal, antibody VHL.EPPK1.M.C, Average (average of 3 replicates): 0.993
- RPPA signal, antibody VHL.R.C, Average (average of 3 replicates): 0.983
- RPPA signal, antibody Vinculin.M.V, Average (average of 3 replicates): 0.997
- RPPA signal, antibody WIPI1.R.C, Average (average of 3 replicates): 0.904
- RPPA signal, antibody WTAP.R.V, Average (average of 3 replicates): 0.916
- RPPA signal, antibody Wee1.R.C, Average (average of 3 replicates): 1.196
- RPPA signal, antibody Wee1_pS642.R.C, Average (average of 3 replicates): 1.114
- RPPA signal, antibody XBP.1.G.C, Average (average of 3 replicates): 0.890
- RPPA signal, antibody XPA.M.V, Average (average of 3 replicates): 1.012
- RPPA signal, antibody XPF.R.C, Average (average of 3 replicates): 1.010
- RPPA signal, antibody XRCC1.R.C, Average (average of 3 replicates): 0.941
- RPPA signal, antibody YAP.R.C, Average (average of 3 replicates): 1.005
- RPPA signal, antibody YAP_pS127.R.V, Average (average of 3 replicates): 0.945
- RPPA signal, antibody YB1_pS102.R.V, Average (average of 3 replicates): 0.981
- RPPA signal, antibody YES1.R.V, Average (average of 3 replicates): 0.965
- RPPA signal, antibody YTHDF2.R.V, Average (average of 3 replicates): 0.921
- RPPA signal, antibody YTHDF3.R.C, Average (average of 3 replicates): 0.920
- RPPA signal, antibody ZAP.70.R.V, Average (average of 3 replicates): 1.002
- RPPA signal, antibody ZEB1.R.V, Average (average of 3 replicates): 0.953
- RPPA signal, antibody TSC1.R.C (individual replicates): 1.023 and 1.362
- RPPA signal, antibody TTF1.R.V (individual replicates): 0.931 and 1.030 and 0.806
- RPPA signal, antibody TUFM.R.V (individual replicates): 1.892 and 0.802 and 0.754
- RPPA signal, antibody Tuberin.R.V (individual replicates): 0.956 and 1.663 and 1.249
- RPPA signal, antibody Tuberin_pT1462.R.V (individual replicates): 0.926 and 1.194 and 0.864
- RPPA signal, antibody Twist.M.C (individual replicates): 1.006 and 0.964 and 1.005
- RPPA signal, antibody Tyro3.R.V (individual replicates): 1.127 and 0.928 and 0.691
- RPPA signal, antibody U.Histone.H2B.R.C (individual replicates): 0.941
- RPPA signal, antibody UBAC1.R.V (individual replicates): 0.942 and 1.076 and 0.780
- RPPA signal, antibody UBQLN4.M.C (individual replicates): 0.956 and 1.187
- RPPA signal, antibody UGT1A.M.V (individual replicates): 1.021 and 0.968 and 0.996
- RPPA signal, antibody ULK1_pS757.R.C (individual replicates): 1.126
- RPPA signal, antibody UQCRC2.M.C (individual replicates): 0.997 and 0.500
- RPPA signal, antibody UVRAG.R.C (individual replicates): 0.983 and 1.130
- RPPA signal, antibody VASP.R.V (individual replicates): 0.982 and 1.010
- RPPA signal, antibody VAV1.R.C (individual replicates): 0.910 and 1.057 and 1.165
- RPPA signal, antibody VEGFR.2.R.V (individual replicates): 0.908 and 1.050 and 1.150
- RPPA signal, antibody VEGFR.2_pY1175.R.C (individual replicates): 0.907 and 1.020
- RPPA signal, antibody VHL.EPPK1.M.C (individual replicates): 0.920
- RPPA signal, antibody VHL.R.C (individual replicates): 1.080 and 0.894 and 0.975
